21 compounds from ChEMBL document CHEMBL3870307, “5-HT7 receptor modulators: Amino groups attached to biphenyl scaffold determine functional activity” (Eur J Med Chem, 2016) can be followed below.

Each structure is given as a SMILES string. Active and inactive are the calls of the source. The rule behind the calls is not given here.

The target of assay [1] is T1, 5-hydroxytryptamine receptor 7 (Homo sapiens, UniProt P34969). Nature of the assay: Antagonist activity at human 5-HT7R expressed in HEK293 cells assessed as inhibition of serotonin stimulated cAMP levels at 10 uM preincubated for 10 mins followed by serotonin stimulation after 30 mins by D2-dye based fluorescence assay. It counts as functional, cell-based. For orientation: Changes in cAMP serve as a functional read-out for many G protein-coupled receptors.
T1 sequence (P34969 whole entry): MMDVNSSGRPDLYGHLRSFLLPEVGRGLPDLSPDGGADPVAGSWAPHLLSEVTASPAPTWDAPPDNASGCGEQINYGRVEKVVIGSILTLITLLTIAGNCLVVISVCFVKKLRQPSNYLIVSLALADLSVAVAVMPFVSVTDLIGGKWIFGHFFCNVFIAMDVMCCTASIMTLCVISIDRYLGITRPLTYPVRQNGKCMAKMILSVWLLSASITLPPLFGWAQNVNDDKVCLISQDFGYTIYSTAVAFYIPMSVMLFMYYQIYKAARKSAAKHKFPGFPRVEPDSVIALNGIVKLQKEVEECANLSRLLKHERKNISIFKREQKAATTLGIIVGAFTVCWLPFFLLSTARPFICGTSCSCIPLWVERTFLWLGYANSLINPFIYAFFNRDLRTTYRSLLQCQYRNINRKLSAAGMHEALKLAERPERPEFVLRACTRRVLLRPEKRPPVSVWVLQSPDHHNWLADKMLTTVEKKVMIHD

Assay [2] concerns the target T1, 5-hydroxytryptamine receptor 7. In words: Displacement of [3H]D-lysergic acid diethylamide from 5HT7R (unknown origin) expressed in HEK293 cell membranes incubated for 1.5 hrs in absence of light by liquid scintillation counting. On the technique in general: Displacement assays read how much labelled ligand stays bound in the presence of the test substance.
The target is the same in assay [3]. Nature of the assay: Agonist activity at human 5-HT7R expressed in HEK293 cells assessed as induction of cAMP levels at 10 uM treated for 10 mins measured after 30 mins by D2-dye based fluorescence assay relative to serotonin. It counts as functional, cell-based.
Assay [4] has the same target. Nature of the assay: Antagonist activity at human 5-HT7R expressed in HEK293 cells assessed as inhibition of serotonin stimulated-cAMP levels at 100 uM preincubated for 10 mins followed by serotonin stimulation after 30 mins by D2-dye based fluorescence assay. It counts as functional, cell-based.
Assay [5] has the same target. Nature of the assay: Antagonist activity at human 5-HT7R expressed in HEK293 cells assessed as inhibition of serotonin stimulated-cAMP levels preincubated for 10 mins followed by serotonin stimulation after 30 mins by D2-dye based fluorescence assay. It counts as functional, cell-based.
Assay [6] has the same target. Nature of the assay: Agonist activity at human 5-HT7R expressed in HEK293 cells assessed as induction of cAMP levels treated for 10 mins measured after 30 mins by D2-dye based fluorescence assay. It counts as functional, cell-based.
The target is the same in assay [7]. Nature of the assay: Displacement of [3H]D-lysergic acid diethylamide from 5HT7R (unknown origin) expressed in CHO-K1 cell membranes incubated for 1.5 hrs in absence of light by liquid scintillation counting.

Turning to `COc1ccccc1-c1cc(CN2CCC(C)CC2)ccc1OC`, the Imax in assay [1] is 7.74%. The Ki (as a rule, the dissociation constant of the complex between target and ligand, obtained from inhibition or displacement) in assay [2] turned out to be 3060 nM. The Emax (as a rule, the greatest response seen or fitted, relative to the assay's reference) in assay [3] was -1.14%.
On to `COc1ccccc1-c1cc(CN2CCC(C)CC2)ccc1C`, for which the Imax in assay [1] stood at 29%. In assay [2], this compound returned a Ki of 1120 nM. For the same compound, the Emax in assay [3] worked out at 2.53%.
Consider `CC1CCN(CC[C@H]2CCCN2S(=O)(=O)c2cccc(O)c2)CC1`, for which the Imax in assay [1] worked out at 100%.
Consider `COc1ccccc1-c1cc(CN2CCN(c3ccccc3OC)CC2)ccc1Cl`, for which, in assay [1], the Imax came out at 91%. Moreover, in assay [4], the inhibition result is “Active”. The compound further registered a Ki in assay [2] of 73 nM. For the same compound, the IC50 (as a rule, the midpoint of a concentration-inhibition curve) in assay [5] came to 23100 nM. Moreover, in assay [3], the Emax is -7.72%.
For `CNCc1ccc(Cl)c(-c2ccccc2OC)c1`, the Imax in assay [1] was found to be 4.66%. The same compound yielded a Ki in assay [2] of 5.2 nM. Moreover, the EC50 – broadly, the concentration giving half of the maximal effect – in assay [6] turned out to be 550 nM. In addition, in assay [3], the Emax came out at 66.8%.
`COc1ccccc1-c1cc(CN(C)C)cc2c1OCO2`: in assay [1], the Imax came to 13.5%. The compound further returned a Ki in assay [2] of 772 nM. Besides, the Emax in assay [3] was 3.97%.
Regarding `COc1ccccc1-c1cccc(CN(C)C)c1`, in assay [1], the Imax was found to be 40.8%. Also, in assay [2], the Ki turned out to be 126 nM. Besides, in assay [3], the Emax amounted to 15.4%.
For `CNCc1ccc(OC)c(-c2ccccc2OC)c1`, in that order: 2.25%, 648 nM and 11%.
In the case of `COc1ccccc1-c1cc(CN(C)C)ccc1OC`, in assay [1], the Imax stood at 4.54%. In assay [2], this compound showed an inhibitory constant (Ki) of 1020 nM. For the same compound, the Emax in assay [3] was 28.8%.
As for `COc1ccccc1-c1cc(CN2CCN(c3ccccc3OC)CC2)cc2c1OCO2`, the Imax in assay [1] came to 93.7%. In addition, the inhibition result in assay [4] is “Active”. The same compound displayed a Ki in assay [2] of 34 nM. Besides, the IC50 in assay [5] was 19800 nM. Besides, the Emax in assay [3] is -1.56%.
As to `CNCc1cc2c(c(-c3ccccc3OC)c1)OCO2`, the Imax in assay [1] was 8.4%. In assay [2], this compound showed a Ki of 1480 nM. Moreover, in assay [3], the Emax amounted to 13.6%.
As to `COc1ccccc1-c1cc(CN2CCN(c3ccccc3OC)CC2)ccc1C`, the Imax in assay [1] amounted to 69.3%. For the same compound, the inhibition result in assay [4] is “Active”. In addition, the affinity in assay [2] corresponds to a Ki of 18 nM. The IC50 in assay [5] turned out to be 6350 nM. Also, the Emax in assay [3] came out at 14%.
In the case of `CNCc1cccc(-c2ccccc2OC)c1`, in assay [1], the Imax was -0.87%. The same compound yielded a Ki in assay [2] of 226 nM. Further, in assay [3], the Emax is 24.5%.
Consider `COc1ccccc1-c1cc(CN(C)C)ccc1Cl`, for which, in assay [1], the Imax turned out to be 10.3%. Also, the Ki in assay [2] was determined as 18 nM. For the same compound, the Emax in assay [3] came to 27.6%.
`COc1ccccc1-c1cc(CN(C)C)ccc1C`: the Imax in assay [1] was determined as 6.61%. Further, the affinity in assay [2] corresponds to a Ki of 23 nM. The Emax in assay [3] was determined as 33.3%.
On to `COc1ccccc1-c1cc(CN2CCC(C)CC2)cc2c1OCO2`, for which the Imax in assay [1] worked out at 15.6%. The Ki in assay [2] stood at 691 nM. In addition, the Emax in assay [3] was found to be 7.6%.
On to `COc1ccccc1-c1cc(CN2CCC(C)CC2)ccc1Cl`, for which the Imax in assay [1] came to 52.3%. Moreover, in assay [2], the Ki was determined as 389 nM. For the same compound, the Emax in assay [3] is -14.4%.
For the compound `COc1ccccc1-c1cccc(CN2CCN(c3ccccc3OC)CC2)c1`, the Ki in assay [7] amounted to 15 nM.
Consider `COc1ccccc1-c1cccc(CN2CCC(C)CC2)c1`, for which, in assay [1], the Imax stood at 39%. This compound showed a Ki in assay [2] of 1040 nM. Moreover, the Emax in assay [3] was found to be 8.59%.
In the case of `COc1ccccc1-c1cc(CN2CCN(c3ccccc3OC)CC2)ccc1OC`, in assay [1], the Imax came to 91.6%. Further, the inhibition entry in assay [4] is “Active”. In addition, affinity in assay [2] was put at a Ki of 79 nM. Further, the IC50 in assay [5] was determined as 5570 nM. Moreover, in assay [3], the Emax was -2.42%.
Turning to `CNCc1ccc(C)c(-c2ccccc2OC)c1`, the Imax in assay [1] amounted to 2.49%. Besides, the affinity in assay [2], expressed as Ki, was 15 nM. Further, the EC50 in assay [6] amounted to 3200 nM. In addition, the Emax in assay [3] is 55.5%.
